Entries after “also recorded” stand apart in the source; their conditions may differ.
Legend:
PBMCs [1] = assay type: cell-based, human
PBMCs [2] = assay type: cell-based, human; remark: listed apart in the source
human PBMCs [3] = test: Cytokine release from freshly isolated PBMCs (standard culture), cytokine bead array; assay type: cell-based; details: fresh PBMCs, 10^6/ml, mAb 1 μg/ml, 24 hours
From the text: For the induction of cytokine release, the present invention as well as this comparative example uses a system of PBMC stimulation as described below to study the response of human PBMCs to immune-modulating agents. This system employs freshly prepared PBMCs, isolated from heparinized venous blood by centrifugation over a density gradient (Lymphocyte Separation Medium LSM 1077, PAA Laboratories, Pasching, Germany) following the manufacturer's instructions. […]
In this tissue culture system, freshly isolated PBMCs were stimulated with soluble TGN1412 provided by TheraMab GmbH, Wurzburg. […] After 24 hours, a panel of cytokines including the major pro- and anti-inflammatory factors detected in plasma of the volunteers of the TGN1412 trial (Suntharalingam et al., 2006) were analyzed by the cytokine-bead-array (CBA) technology (Becton Dickinson, Mountain View, Calif., USA) following the manufacturer's instructions. […]
PBMCs from a healthy donor were isolated by Ficoll density centrifugation and cultured in 0.2 ml RPMI1640 medium supplemented with 10% AB serum for 24 hours at 10^6/ml in 96 well flat bottom tissue culture plates. Cytokines in the supernatants were analyzed after 24 hours of incubation by cytokine bead array. […]

human PBMCs [4] = test: Cytokine release from precultured PBMCs restimulated at 10^6/ml, cytokine bead array; assay type: cell-based; details: high-density precultured PBMCs, mAb 1 μg/ml, OKT3 compared with TGN1412
Experimental: For the experiment in FIG. 1B PBMCs from a healthy donor were cultured in 1.5 ml medium for 2 days at 10^7/ml in 24 well flat bottom tissue culture plates before being washed and readjusted to 10^6/ml. With these cells, the same experiment was performed as described in Example 1.
For the experiment of FIG. 3 PBMCs were cultured at 10^6/ml (left bars) or at 10^7/ml (right bars) for 2 days before being stimulated by TGN1412 at 10^6/ml as described in FIG. 1.
For the experiment of FIG. 4 fresh PBMCs (left bars of triplets), and PBMCs precultured at 10^7/ml for 24 (middle bars of triplets) or 48 hours (right bars of triplets) were stimulated with OKT3 or TGN1412 for 24 hours under the conditions given in FIG. 1.
For the experiment of FIG. 5 PBMCs were cultured for two days at high density (10^7/ml, right bars of triplets) or at low density (10^6/ml, left and middle bars of triplets) in 1.5 ml cultures. In the group shown as middle bars of triplets, these low density cultures additionally contained an insert with a semipermeable membrane on which additional PBMCs were cultured at high-density (10^6/ml below membrane, 10^7/ml above membrane, middle bars of triplets).
Cell density. […]
High-density precultured PBMCs were prepared as in FIG. 1B and stimulated with 1 μg/ml of OKT3 or TGN1412. Supernatants were harvested at the times indicated and TNF content was analysed as in FIG. 1.

human PBMCs [5] = test: PBMC proliferation, 3H-thymidine incorporation; assay type: cell-based; details: 3H-thymidine on day 3, 16 hours
Experimental: Fresh and precultured PBMCs were prepared and cultured as described for FIGS. 1 A and B, respectively. On day 3, 1 μCi of 3H-thymidine was added, and cultures were harvested 16 hours later and processed for liquid scintillation counting. Besides cytokine release, polyclonal T-cell activation results in proliferation which can be measured as radioactivity incorporated, here incorporated as tritiated thymidine. […] Thus, proliferation can also be used as a readout.

CD4 T-cells in PBMCs = test: Intracellular TNF / IFN-gamma staining of CD4 T-cell subsets (flow cytometry, brefeldin A); assay type: cell-based, human; details: mAb 1 μg/ml, 18 hours, brefeldin A last 4 hours; CD45RO+ vs CD45RO- CD4 T-cells
Experimental: 2 day high-density precultured PBMCs were stimulated for 18 hours with 1 μg/ml of OKT3 or of TGN1412. Instead of 18 hours stimulation for a period of time between 15 to 20 hours, preferably 16 to 18 hours, is generally possible. During the last 4 hours of culture, 5 μg/ml of brefeldin A was added to block cellular export of cytokines. After cell-surface staining with fluorochome-conjugated mAb to CD4 and CD45RO (memory marker), cells were fixed, permeabilized and stained with mAb to TNF—left panels—or IFNgamma—right panels—(all from BD Pharmingen, Mountain View, Calif., USA)
15.000 live-gated events were acquired on a BD Calibur flow cytometer and data were analyzed using FlowJo software (Three Star Inc., Ashland, Oreg., USA). The cytokine storm elicited by OKT3 in patients is a well-known phenomenon, and the accompanying information provided with this drug (Muromonomab, Janssen-CILAG) explicitly warns against this syndrome. […] In parallel, the cell surface phenotype of the stimulated PBMCs was determined. The main cytokine-producing T-cell subset, the CD4 T-cells, were thus identified and further subdivided into naive (CD45R0−) and memory (CD45RO+) subsets.

patients = patients receiving mAb therapy; cited from earlier work

Substance: Staphylococcal Enterotoxin B
- proliferative response (PBMCs [1]): strongly enhances the sensitivity of this assay

Substance: concanavalin A [ConA]
- proliferative T-cell response (PBMCs [2]): strongly enhanced

Substance: OKT3: CD3-specific mAb addressing the T-cell antigen receptor, clinical-grade, Janssen-Cilag
- cytokine release (TNF, IFN-gamma, IL-2, IL-10) (human PBMCs [3]): highly effective in inducing TNF, IFN-gamma, and IL-2; also recorded: ability
- kinetics of TNF release (human PBMCs [4]): follows the same kinetics
- proliferation (human PBMCs [5]; 2 day high-density precultured PBMCs): stimulated the proliferation of both, fresh and precultured PBMCs
- proliferation (human PBMCs [5]; fresh PBMCs): stimulated the proliferation of both, fresh and precultured PBMCs
- cellular source of TNF and IFN-gamma production (CD4 T-cells in PBMCs): predominantly in the CD4 memory subset
- systemic cytokine release (patients): induce the systemic release of proinflammatory cytokines

Substance: phytohemagglutinin [PHA]
- proliferative T-cell response (PBMCs [2]): strongly enhanced

From US20110082091A1, “Method for Preclinical Testing of Immunomodulatory Drugs” (TheraMAB GmbH, priority 2009, published 2011)
